Measured values from patent publication US9730906B2, “α-derivatives of cis-monounsaturated fatty acids for use as medicines” (UNIVERSITAT DE LES ILLES BALEARS, priority 2008, dated 2017).

Legend:
Experiment in all cases: Effect of OHOD on cancer cells in culture (Table 2)
Type in all cases: cell-based, human
Design in all cases: key to Anti-tumour effect: + [inhibition of growth]; ++ [total halt of growth]; +++ [total removal of tumour cells]; key to Mechanism of action: P [anti-proliferative]; D [differentiation]; A [apoptosis]
L-1210 = conditions: L-1210, Lym-Leukaemia
Experimental: (§1) Also, a series of α-derivatives of cis-monounsaturated fatty acids were used to investigate their effectiveness in cancer treatment. Two types of experiment were performed. Firstly, the dependency of the anti-tumour effect on concentration was investigated. To perform these experiments, human lung cancer cells (A549) were cultivated in RPMI medium, supplemented with 10% foetal bovine […], 10 mM Hepes (pH 7.4), 2 mM glutamine, 2 g/l bicarbonate, 1 g/l glucose, 100 units/ml penicillin, 0.1 mg/ml streptomycin, 0.25 μg/ml Amphotericin B, at 37° C. and in the presence of 5% CO2. In a first experimental series, these cells were treated with various concentrations (0-400 μM) of OHOD and MOD11 and the number of cells was determined by flow cytometry (FIG. 3A). […] In a second series, the anti-tumour effectiveness on A549 lung cancer cells was investigated at a single concentration (150 μM) and a time of 48 hours (FIG. 3B). […] Obviously, among the previous molecules, some lacked both modifications on the α-carbon and the double bond in cis configuration (EO, HDO, ODO) and had no therapeutic effect.
(§2) In a second experimental series, designed to discover whether these molecules are effective in treatment of different types of tumours, the effect of OHOD at various concentrations on human cells of different types of cancer was studied. These experiments were performed as described before, except that the M220 and HT-29 cell lines were cultured in DMEM medium and the MDA-MB-231 line was incubated in Leibowitz L-15 medium supplemented with 15% foetal bovine […]. […] Where the nature of the tumour process requires, application can be topical (use on the skin of active products for the treatment of melanoma and other cutaneous abnormalities of cancerous nature), which can be considered as cosmetic treatments when attempts are made to correct aesthetic defects.

A172 = conditions: A172, Glioma
Experimental: as §1, §2

M220 = conditions: M220, Pancreas
Experimental: as §1, §2

A118 = conditions: A118, Glioma
Experimental: as §1, §2

SH-SY5Y = conditions: Neuroblastoma
Experimental: as §1, §2

Jurkat = conditions: Lym-Leukaemia
Experimental: as §1, §2

LNcaP = conditions: Prostate
Experimental: as §1, §2

## CCCCCCCC/C=C\CCCCCCC(O)C(=O)O (stereo not drawn) [OHOD, α-Hydroxy-cis-Δ9-octadecenoic]
L-1210
  Anti-tumour effect: +++
  Mechanism of action: A
A172
  Anti-tumour effect: ++
  Mechanism of action: D
M220
  Anti-tumour effect: ++
  Mechanism of action: A
A118
  Anti-tumour effect: +++
  Mechanism of action: D
SH-SY5Y
  Anti-tumour effect: +
  Mechanism of action: P
Jurkat
  Anti-tumour effect: +++
  Mechanism of action: A
LNcaP
  Anti-tumour effect: +++
  Mechanism of action: A
